From ChEMBL document CHEMBL1155271, “Synthesis, crystal structures and antibacterial activity studies of aza-derivatives of phytoalexin from cotton plant--gossypol” (2009)
≈ marks a conversion by molar mass, not a printed value.

Tests used:
Type in all cases: functional
[1] = system: Staphylococcus aureus; assay: Antimicrobial activity against methicillin-resistant Staphylococcus aureus 136/6 by twofold dilution technique
[2] = system: Staphylococcus aureus; assay: Antimicrobial activity against methicillin-resistant Staphylococcus aureus 146/6 by twofold dilution technique
[3] = system: Staphylococcus aureus; assay: Antimicrobial activity against methicillin-resistant Staphylococcus aureus 140/6 by twofold dilution technique
[4] = system: Staphylococcus aureus; assay: Antimicrobial activity against Staphylococcus aureus ATCC 29213 at 400 ug after 18 hrs by disk diffusion method; settings: ATCC 29213, 18 h, read-out: DIZ
[5] = system: Staphylococcus aureus; assay: Antimicrobial activity against Methicillin susceptible Staphylococcus aureus 237/7 by twofold dilution technique
[6] = system: Staphylococcus aureus; assay: Antimicrobial activity against Staphylococcus aureus ATCC 6538 at 400 ug after 18 hrs by disk diffusion method; settings: ATCC 6538, 18 h, read-out: DIZ
[7] = system: Staphylococcus aureus; assay: Antimicrobial activity against Methicillin susceptible Staphylococcus aureus 206/7 by twofold dilution technique
[8] = system: Staphylococcus aureus; assay: Antimicrobial activity against Staphylococcus aureus NCTC 4163 after 18 hrs by twofold dilution technique; settings: NCTC 4163, 18 h
[9] = system: Staphylococcus epidermidis; assay: Antimicrobial activity against Staphylococcus epidermidis ATCC 12228 at 400 ug after 18 hrs by disk diffusion method; settings: ATCC 12228, 18 h, read-out: DIZ
[10] = system: Enterococcus hirae; assay: Antimicrobial activity against Enterococcus hirae ATCC 10541 after 18 hrs by twofold dilution technique; settings: ATCC 10541, 18 h
[11] = system: Staphylococcus aureus; assay: Antimicrobial activity against Methicillin susceptible Staphylococcus aureus 243/7 by twofold dilution technique
[12] = system: Staphylococcus aureus; assay: Antimicrobial activity against Methicillin susceptible Staphylococcus aureus 208/7 by twofold dilution technique
[13] = system: Staphylococcus aureus; assay: Antimicrobial activity against methicillin-resistant Staphylococcus aureus 200/7 by twofold dilution technique
[14] = system: Staphylococcus aureus; assay: Antimicrobial activity against Staphylococcus aureus ATCC 25923 at 400 ug after 18 hrs by disk diffusion method; settings: ATCC 25923, 18 h, read-out: DIZ
[15] = system: Staphylococcus aureus; assay: Antimicrobial activity against Methicillin susceptible Staphylococcus aureus 207/7 by twofold dilution technique
[16] = system: Staphylococcus aureus; assay: Antimicrobial activity against methicillin-resistant Staphylococcus aureus 143/6 by twofold dilution technique
[17] = system: Staphylococcus aureus; assay: Antimicrobial activity against methicillin-resistant Staphylococcus aureus 217/7 by twofold dilution technique
[18] = system: Staphylococcus epidermidis; assay: Antimicrobial activity against Staphylococcus epidermidis ATCC 12228 by twofold dilution technique
[19] = system: Bacillus cereus; assay: Antimicrobial activity against Bacillus cereus ATCC 11778 at 400 ug after 18 hrs by disk diffusion method; settings: ATCC 11778, 18 h, read-out: DIZ
[20] = system: Staphylococcus aureus; assay: Antimicrobial activity against methicillin-resistant Staphylococcus aureus 144/6 by twofold dilution technique
[21] = system: Staphylococcus aureus; assay: Antimicrobial activity against Staphylococcus aureus ATCC 6538 after 18 hrs by twofold dilution technique; settings: ATCC 6538, 18 h
[22] = system: Staphylococcus aureus; assay: Antimicrobial activity against methicillin-resistant Staphylococcus aureus 236/7 by twofold dilution technique
[23] = system: Staphylococcus aureus; assay: Antimicrobial activity against Methicillin susceptible Staphylococcus aureus 242/7 by twofold dilution technique
[24] = system: Bacillus subtilis; assay: Antimicrobial activity against Bacillus subtilis ATCC 6633 after 18 hrs by twofold dilution technique; settings: ATCC 6633, 18 h
[25] = system: Micrococcus luteus; assay: Antimicrobial activity against Micrococcus luteus ATCC 10240 by twofold dilution technique
[26] = system: Staphylococcus aureus; assay: Antimicrobial activity against methicillin-resistant Staphylococcus aureus 141/6 by twofold dilution technique
[27] = system: Staphylococcus aureus; assay: Antimicrobial activity against Staphylococcus aureus NCTC 4163 at 400 ug after 18 hrs by disk diffusion method; settings: NCTC 4163, 18 h, read-out: DIZ
[28] = system: Bacillus subtilis; assay: Antimicrobial activity against Bacillus subtilis ATCC 6633 at 400 ug after 18 hrs by disk diffusion method; settings: ATCC 6633, 18 h, read-out: DIZ
[29] = system: Staphylococcus aureus; assay: Antimicrobial activity against Staphylococcus aureus ATCC 25923 after 18 hrs by twofold dilution technique; settings: ATCC 25923, 18 h
[30] = system: Staphylococcus aureus; assay: Antimicrobial activity against Methicillin susceptible Staphylococcus aureus 239/7 by twofold dilution technique
[31] = system: Staphylococcus aureus; assay: Antimicrobial activity against Staphylococcus aureus ATCC 29213 after 18 hrs by twofold dilution technique; settings: ATCC 29213, 18 h
[32] = system: Bacillus cereus; assay: Antimicrobial activity against Bacillus cereus ATCC 11778 after 18 hrs by twofold dilution technique; settings: ATCC 11778, 18 h
[33] = system: Enterococcus hirae; assay: Antimicrobial activity against Enterococcus hirae ATCC 10541 at 400 ug after 18 hrs by disk diffusion method; settings: ATCC 10541, 18 h, read-out: DIZ
[34] = system: Staphylococcus aureus; assay: Antimicrobial activity against Methicillin susceptible Staphylococcus aureus 213/7 by twofold dilution technique
[35] = system: Staphylococcus aureus; assay: Antimicrobial activity against Methicillin susceptible Staphylococcus aureus 238/7 by twofold dilution technique
[36] = system: Micrococcus luteus; assay: Antimicrobial activity against Micrococcus luteus ATCC 9341 at 400 ug after 18 hrs by disk diffusion method; settings: ATCC 9341, 18 h, read-out: DIZ
[37] = system: Micrococcus luteus; assay: Antimicrobial activity against Micrococcus luteus ATCC 9341 after 18 hrs by twofold dilution technique; settings: ATCC 9341, 18 h
[38] = system: Staphylococcus aureus; assay: Antimicrobial activity against Methicillin susceptible Staphylococcus aureus 212/7 by twofold dilution technique
[39] = system: Micrococcus luteus; assay: Antimicrobial activity against Micrococcus luteus ATCC 10240 at 400 ug after 18 hrs by disk diffusion method; settings: ATCC 10240, 18 h, read-out: DIZ
[40] = system: Staphylococcus aureus; assay: Antimicrobial activity against methicillin-resistant Staphylococcus aureus 218/7 by twofold dilution technique

Compound: Cc1cc2c(C(C)C)c(O)c(O)c(C=O)c2c(O)c1-c1c(C)cc2c(C(C)C)c(O)c(O)c(C=O)c2c1O [GOSSYPOL]
- MIC [1]: 50 µg/mL (≈ 96.4 µM)
- MIC [2]: 50 µg/mL (≈ 96.4 µM)
- MIC [3]: 50 µg/mL (≈ 96.4 µM)
- zone of inhibition at 400 µg/disc [4]: 15 mm
- MIC [5]: 25 µg/mL (≈ 48.2 µM)
- zone of inhibition at 400 µg/disc [6]: 14 mm
- MIC [7]: 25 µg/mL (≈ 48.2 µM)
- MIC [8]: 50 µg/mL (≈ 96.4 µM)
- zone of inhibition at 400 µg/disc [9]: 16 mm
- MIC [10]: 25 µg/mL (≈ 48.2 µM)
- MIC [11]: 25 µg/mL (≈ 48.2 µM)
- MIC [12]: 50 µg/mL (≈ 96.4 µM)
- MIC [13]: 50 µg/mL (≈ 96.4 µM)
- zone of inhibition at 400 µg/disc [14]: 15 mm
- MIC [15]: 50 µg/mL (≈ 96.4 µM)
- MIC [16]: 50 µg/mL (≈ 96.4 µM)
- MIC [17]: 50 µg/mL (≈ 96.4 µM)
- MIC [18]: 100 µg/mL (≈ 193 µM)
- zone of inhibition at 400 µg/disc [19]: 15 mm
- MIC [20]: 50 µg/mL (≈ 96.4 µM)
- MIC [21]: 12.5 µg/mL (≈ 24.1 µM)
- MIC [22]: 50 µg/mL (≈ 96.4 µM)
- MIC [23]: 12.5 µg/mL (≈ 24.1 µM)
- MIC [24]: 100 µg/mL (≈ 193 µM)
- MIC [25]: 50 µg/mL (≈ 96.4 µM)
- MIC [26]: 50 µg/mL (≈ 96.4 µM)
- zone of inhibition at 400 µg/disc [27]: 16 mm
- zone of inhibition at 400 µg/disc [28]: 15 mm
- MIC [29]: 25 µg/mL (≈ 48.2 µM)
- MIC [30]: 25 µg/mL (≈ 48.2 µM)
- MIC [31]: 12.5 µg/mL (≈ 24.1 µM)
- MIC [32]: 25 µg/mL (≈ 48.2 µM)
- zone of inhibition at 400 µg/disc [33]: 14 mm
- MIC [34]: 50 µg/mL (≈ 96.4 µM)
- MIC [35]: 25 µg/mL (≈ 48.2 µM)
- zone of inhibition at 400 µg/disc [36]: 12 mm
- MIC [37]: 25 µg/mL (≈ 48.2 µM)
- MIC [38]: 50 µg/mL (≈ 96.4 µM)
- zone of inhibition at 400 µg/disc [39]: 16 mm
- MIC [40]: 50 µg/mL (≈ 96.4 µM)

Compound: Cc1cc2c(c(O)c1-c1c(C)cc3c(c1O)/C(=C/NCCc1cccs1)C(=O)C(O)=C3C(C)C)/C(=C/NCCc1cccs1)C(=O)C(O)=C2C(C)C
- MIC [1]: 50 µg/mL (≈ 67.8 µM)
- MIC [2]: 50 µg/mL (≈ 67.8 µM)
- MIC [3]: 50 µg/mL (≈ 67.8 µM)
- zone of inhibition at 400 µg/disc [4]: 18 mm
- MIC [5]: 50 µg/mL (≈ 67.8 µM)
- zone of inhibition at 400 µg/disc [6]: 17 mm
- MIC [7]: 25 µg/mL (≈ 33.9 µM)
- MIC [8]: 50 µg/mL (≈ 67.8 µM)
- zone of inhibition at 400 µg/disc [9]: 21 mm
- MIC [10]: 50 µg/mL (≈ 67.8 µM)
- MIC [11]: 50 µg/mL (≈ 67.8 µM)
- MIC [12]: 50 µg/mL (≈ 67.8 µM)
- MIC [13]: 50 µg/mL (≈ 67.8 µM)
- zone of inhibition at 400 µg/disc [14]: 18 mm
- MIC [15]: 50 µg/mL (≈ 67.8 µM)
- MIC [16]: 50 µg/mL (≈ 67.8 µM)
- MIC [17]: 100 µg/mL (≈ 136 µM)
- MIC [18]: 100 µg/mL (≈ 136 µM)
- zone of inhibition at 400 µg/disc [19]: 15 mm
- MIC [20]: 50 µg/mL (≈ 67.8 µM)
- MIC [21]: 25 µg/mL (≈ 33.9 µM)
- MIC [22]: 50 µg/mL (≈ 67.8 µM)
- MIC [23]: 12.5 µg/mL (≈ 17 µM)
- MIC [24]: 100 µg/mL (≈ 136 µM)
- MIC [25]: 50 µg/mL (≈ 67.8 µM)
- MIC [26]: 50 µg/mL (≈ 67.8 µM)
- zone of inhibition at 400 µg/disc [27]: 18 mm
- zone of inhibition at 400 µg/disc [28]: 16 mm
- MIC [29]: 25 µg/mL (≈ 33.9 µM)
- MIC [30]: 50 µg/mL (≈ 67.8 µM)
- MIC [31]: 25 µg/mL (≈ 33.9 µM)
- MIC [32]: 50 µg/mL (≈ 67.8 µM)
- zone of inhibition at 400 µg/disc [33]: 14 mm
- MIC [34]: 25 µg/mL (≈ 33.9 µM)
- MIC [35]: 50 µg/mL (≈ 67.8 µM)
- zone of inhibition at 400 µg/disc [36]: 12 mm
- MIC [37]: 50 µg/mL (≈ 67.8 µM)
- MIC [38]: 25 µg/mL (≈ 33.9 µM)
- zone of inhibition at 400 µg/disc [39]: 19 mm
- MIC [40]: 50 µg/mL (≈ 67.8 µM)
